In US5462935A, “Cephalosporin compounds” (Lucky Limited, priority 1990, dated 1995):
In brackets after ≈: the same amount, converted by molar mass. Where two headings read alike, the source gives them in different places.

Assays:
[1] = system: Proteus vulgaris ATCC 6059; test: minimal inhibitory concentration, two-fold agar dilution; assay type: cell-based; details: ATCC6059, Muller-Hinton agar, 37° C., 20 hours
Protocol: (§1) These NIC values were taken by employing a two-fold dilution method: that is, two-fold serial dilutions of each of the test compounds were made and dispersed in a Muller-Hinton agar medium; 2 μl of the standard test strain which had the 10^7 CFU (Colony Forming Unit) per ml was inoculated on the medium; and these were incubated at 37° C. for 20 hours.

ATCC 12228 = test: as above; assay type: cell-based; details: Staphylococcus faecalis, ATCC12228, 20 h
Protocol: as §1

[2] = system: Pseudomonas aerugionsa ATCC 10145; test: as above; assay type: cell-based; details: ATCC10145, Muller-Hinton agar, 37° C., 20 hours
Protocol: as §1

[3] = system: Pseudomonas aeruginosa ATCC 25619; test: as above; assay type: cell-based; details: ATCC25619, Muller-Hinton agar, 37° C., 20 hours
Protocol: as §1

[4] = system: Pseudomonas aerugionsa ATCC 27853; test: as above; assay type: cell-based; details: ATCC27853, Muller-Hinton agar, 37° C., 20 hours
Protocol: as §1

[5] = system: Micrococcus luteus ATCC 9341; test: as above; assay type: cell-based; details: ATCC9341, Muller-Hinton agar, 37° C., 20 hours
Protocol: as §1

[6] = system: Bacillus cereus ATCC 11778; test: as above; assay type: cell-based
Protocol: as §1

[7] = system: Streptococcus faecalis ATCC 29212; test: as above; assay type: cell-based; details: Enterococcus faecalis, ATCC29212, Muller-Hinton agar, 37° C., 20 hours
Protocol: as §1

[8] = system: Klebsiella pneumoniae ATCC 10031; test: as above; assay type: cell-based; details: ATCC10031, Muller-Hinton agar, 37° C., 20 hours
Protocol: as §1

[9] = system: Bacillus megaterium ATCC 9885; test: as above; assay type: cell-based; details: Priestia megaterium
Protocol: as §1

[10] = system: Morganella morganii ATCC 8076h; test: as above; assay type: cell-based; details: ATCC8076H, 20 h
Protocol: as §1

[11] = system: Shigella flexneri ATCC 11836; test: as above; assay type: cell-based; details: ATCC11836, Muller-Hinton agar, 37° C., 20 hours
Protocol: as §1

[12] = system: Salmonella typhimurium ATCC 14028; test: as above; assay type: cell-based; details: Salmonella enterica, Muller-Hinton agar, 37° C., 20 hours
Protocol: as §1

[13] = system: Staphylococcus epidermidis ATCC 10537; test: as above; assay type: cell-based; details: ATCC10537, Muller-Hinton agar, 37° C., 20 hours
Protocol: as §1

[14] = system: Staphylococcus aureus ATCC 6638p; test: as above; assay type: cell-based; details: ATCC6638P, 20 h
Protocol: as §1

[15] = system: Enterobacter aerogenes ATCC 29751; test: as above; assay type: cell-based; details: Klebsiella aerogenes
Protocol: as §1

[16] = system: Citrobacter freundii ATCC 8090; test: as above; assay type: cell-based; details: ATCC8090, Muller-Hinton agar, 37° C., 20 hours
Protocol: as §1

[17] = system: Serratia marcescens ATCC 27117; test: as above; assay type: cell-based; details: ATCC27117, Muller-Hinton agar, 37° C., 20 hours
Protocol: as §1

[18] = system: Proteus mirabilis ATCC 25933; test: as above; assay type: cell-based; details: ATCC25933, Muller-Hinton agar, 37° C., 20 hours
Protocol: as §1

[19] = system: Acinetobacter calcoaceticus ATCC 15473; test: as above; assay type: cell-based; details: ATCC15473, Muller-Hinton agar, 37° C., 20 hours
Protocol: as §1

[20] = system: Enterobacter cloacae ATCC 27508; test: as above; assay type: cell-based; details: ATCC27508, Muller-Hinton agar, 37° C., 20 hours
Protocol: as §1

[21] = system: Shigella sonnei ATCC 11060; test: as above; assay type: cell-based; details: ATCC11060, Muller-Hinton agar, 37° C., 20 hours
Protocol: as §1

[22] = in vivo absorbency test (plasma concentration, pharmacokinetic parameters); parameters: species or system SD rats (male); details: rat, in vivo, iv, 20 mg/kg
Protocol: In addition to the in vitro tests described above, in vivo absorbency tests for the two selected compounds of formulas (I-S-1) and (I-R-1), along with Ceftadizime, were carried out by administering intravenously, in a dose of 20 mg/kg, each of these two compounds into SD rats (male) weighing 220 to 340 g; […], which were analyzed by employing the bio-assay or agar well method. About 10 to 15 rats were used for each of the compounds.
Notes: (1) Two-Compartment Model
(3) Tested Animal: Rats(male; 220-340 g)

[23] = acute toxicity test, intravenous; details: mouse, in vivo, ICR mice, observed for 14 days
From the text: The results are shown in the last row of Table 2.

[24] = system: Escherichia coli ATCC 10536; test: minimal inhibitory concentration, two-fold agar dilution; assay type: cell-based; details: ATCC10536, Muller-Hinton agar, 37° C., 20 hours
Protocol: as §1

[25] = system: Providencia rettgeri ATCC 9250; test: as above; assay type: cell-based; details: ATCC9250, Muller-Hinton agar, 37° C., 20 hours
Protocol: as §1

[26] = system: Escherichia coli ATCC 25922; test: as above; assay type: cell-based; details: ATCC25922, Muller-Hinton agar, 37° C., 20 hours
Protocol: as §1

[27] = Bacillus cereus, ATCC11778, 20 h

SMILES | MIC [1] [µg/mL] | MIC (ATCC 12228) [µg/mL] | MIC [2] [µg/mL] | MIC [3] [µg/mL] | MIC [4] [µg/mL] | MIC [5] [µg/mL] | MIC [6, 27] [µg/mL] | MIC [7] [µg/mL] | MIC [8] [µg/mL] | MIC [11] [µg/mL] | MIC [12] [µg/mL] | MIC [13] [µg/mL] | MIC [14] [µg/mL] | MIC ([15]; ATCC29751, 20 h) [µg/mL] | MIC [16] [µg/mL] | MIC [17] [µg/mL] | MIC [18] [µg/mL] | MIC [19] [µg/mL] | MIC [20] [µg/mL] | MIC [21] [µg/mL] | other results
CC(C)(O/N=C(\C(=O)N[C@@H]1C(=O)N2C(C(=O)[O-])=C(C[n+]3ccccc3)CS[C@H]12)c1csc(N)n1)C(=O)O [CTZ, Ceftazidime, reference compound] | 0.063 (≈ 0.115 µM) | 4 (≈ 7.32 µM) | 2 (≈ 3.66 µM) | 1 (≈ 1.83 µM) | 1 (≈ 1.83 µM) | 0.5 (≈ 0.915 µM) | 128 (≈ 234 µM) | > 128 | 0.063 (≈ 0.115 µM) | 0.063 (≈ 0.115 µM) | 0.25 (≈ 0.457 µM) | 8 (≈ 14.6 µM) | 16 (≈ 29.3 µM) | 4 (≈ 7.32 µM) | 0.13 (≈ 0.238 µM) | 0.25 (≈ 0.457 µM) | 0.063 (≈ 0.115 µM) | 4 (≈ 7.32 µM) | 0.031 (≈ 0.0567 µM) | 0.13 (≈ 0.238 µM) | MIC ([9]; ATCC9885, 20 h): 0.25 µg/mL (≈ 0.457 µM); MIC [10]: ≤ 0.008 µg/mL; AUC [22]: 28100 ng·h/mL; concentration at 10 min [22]: 50000 ng/mL
C[C@@H](O/N=C(\C(=O)NC1C(=O)N2C(C(=O)[O-])=C(CSc3nc(N)cc(N)[n+]3C)CS[C@H]12)c1csc(N)n1)C(=O)O (stereo partly drawn) [I-R-2, 7-[(Z)-2-(2-aminothiazol-4-yl)-2-[(R)-1-carboxyeth-1-oxyimino]acetamido]-3-[(4,6-diamino-1-methylpyrimidinium-2-yl)thiomethyl]-3-cephem-4-carboxylate] | 0.031 (≈ 0.0508 µM) | 2 (≈ 3.28 µM) | 2 (≈ 3.28 µM) | 2 (≈ 3.28 µM) | 1 (≈ 1.64 µM) | 0.5 (≈ 0.82 µM) | > 128 | > 128 | 0.031 (≈ 0.0508 µM) | 0.031 (≈ 0.0508 µM) | 0.13 (≈ 0.213 µM) | 2 (≈ 3.28 µM) | 4 (≈ 6.56 µM) | 1 (≈ 1.64 µM) | 0.063 (≈ 0.103 µM) | 0.063 (≈ 0.103 µM) | 0.031 (≈ 0.0508 µM) | 4 (≈ 6.56 µM) | 0.016 (≈ 0.0262 µM) | 0.031 (≈ 0.0508 µM) | LD50 at 336 h [23]: > 3000 mg/kg; MIC [24]: 0.063 µg/mL (≈ 0.103 µM); MIC [25]: ≤ 0.008 µg/mL; MIC ([9]; ATCC9885, 20 h): 1 µg/mL (≈ 1.64 µM); MIC [10]: ≤ 0.008 µg/mL; MIC [26]: 0.031 µg/mL (≈ 0.0508 µM)
Cc1c(N)nc(SCC2=C(C(=O)[O-])N3C(=O)C(NC(=O)/C(=N\O[C@H](C)C(=O)O)c4csc(N)n4)[C@H]3SC2)[n+](C)c1N (stereo partly drawn) [I-R-6, 7-[(Z)-2-(2-aminothiazol-4-yl)-2-[(R)-1-carboxyeth-1-oxyimino]acetamido]-3-[(4,6-diamino-1,5-dimethylpyrimidinium-2-yl)thiomethyl]-3-cephem-4-carboxylate] | 0.063 (≈ 0.101 µM) | 2 (≈ 3.21 µM) | 2 (≈ 3.21 µM) | 2 (≈ 3.21 µM) | 2 (≈ 3.21 µM) | 0.5 (≈ 0.802 µM) | 128 (≈ 205 µM) | > 128 | 0.063 (≈ 0.101 µM) | 0.031 (≈ 0.0497 µM) | 0.13 (≈ 0.208 µM) | 2 (≈ 3.21 µM) | 4 (≈ 6.41 µM) | 1 (≈ 1.6 µM) | 0.063 (≈ 0.101 µM) | 0.13 (≈ 0.208 µM) | 0.031 (≈ 0.0497 µM) | 4 (≈ 6.41 µM) | 0.016 (≈ 0.0257 µM) | 0.063 (≈ 0.101 µM) | LD50 at 336 h [23]: > 3000 mg/kg; MIC [24]: 0.063 µg/mL (≈ 0.101 µM); MIC [25]: ≤ 0.008 µg/mL; MIC [10]: ≤ 0.008 µg/mL; MIC [26]: 0.13 µg/mL (≈ 0.208 µM)
C[C@H](O/N=C(\C(=O)NC1C(=O)N2C(C(=O)[O-])=C(CSc3nc(N)cc(N)[n+]3C)CS[C@H]12)c1csc(N)n1)C(=O)O (stereo partly drawn) [I-S-2, 7-[(Z)-2-(2-aminothiazol-4-yl)-2-[(S)-1-carboxyeth-1-oxyimino]acetamido]-3-[(4,6-diamino-1-methylpyrimidinium-2-yl)thiomethyl]-3-cephem-4-carboxylate] | 0.016 (≈ 0.0262 µM) | 1 (≈ 1.64 µM) | 1 (≈ 1.64 µM) | 1 (≈ 1.64 µM) | 0.5 (≈ 0.82 µM) | 0.13 (≈ 0.213 µM) | 32 (≈ 52.5 µM) | > 128 | 0.016 (≈ 0.0262 µM) | ≤ 0.008 | 0.13 (≈ 0.213 µM) | 1 (≈ 1.64 µM) | 2 (≈ 3.28 µM) | 0.5 (≈ 0.82 µM) | 0.016 (≈ 0.0262 µM) | 0.031 (≈ 0.0508 µM) | 0.016 (≈ 0.0262 µM) | 2 (≈ 3.28 µM) | ≤ 0.008 | 0.031 (≈ 0.0508 µM) | LD50 at 336 h [23]: > 3000 mg/kg; MIC [24]: 0.031 µg/mL (≈ 0.0508 µM); MIC [25]: ≤ 0.008 µg/mL; MIC ([9]; ATCC9885, 20 h): 0.25 µg/mL (≈ 0.41 µM); MIC [26]: 0.016 µg/mL (≈ 0.0262 µM)
Cc1c(N)nc(SCC2=C(C(=O)[O-])N3C(=O)C(NC(=O)/C(=N\O[C@@H](C)C(=O)O)c4csc(N)n4)[C@H]3SC2)[n+](N)c1N (stereo partly drawn) [I-S-7, 7-[(Z)-2-(2-aminothiazol-4-yl)-2-[(S)-1-carboxyeth-1-oxyimino]acetamido]-3-[(5-methyl-1,4,6-triaminopyrimidinium-2-yl)thiomethyl]-3-cephem-4-carboxylate] | 0.016 (≈ 0.0256 µM) | 1 (≈ 1.6 µM) | 1 (≈ 1.6 µM) | 0.5 (≈ 0.8 µM) | 0.5 (≈ 0.8 µM) | 0.25 (≈ 0.4 µM) |  | > 128 | 0.016 (≈ 0.0256 µM) | 0.016 (≈ 0.0256 µM) | 0.063 (≈ 0.101 µM) | 2 (≈ 3.2 µM) | 4 (≈ 6.4 µM) |  | 0.016 (≈ 0.0256 µM) | 0.063 (≈ 0.101 µM) | 0.016 (≈ 0.0256 µM) | 2 (≈ 3.2 µM) | ≤ 0.008 | 0.031 (≈ 0.0496 µM) | LD50 at 336 h [23]: > 5000 mg/kg; MIC [24]: 0.031 µg/mL (≈ 0.0496 µM); MIC [25]: ≤ 0.008 µg/mL; MIC ([6]; ATCC11778, Bacillus cereus ATCC 11778, Muller-Hinton agar, 37° C., 20 hours, read-out: MIC): 84 µg/mL (≈ 134 µM); MIC ([9]; ATCC9885, Bacillus megaterium ATCC 9885, Muller-Hinton agar, 37° C., 20 hours, read-out: MIC): 26 µg/mL (≈ 41.6 µM); MIC [26]: 0.016 µg/mL (≈ 0.0256 µM); MIC ([15]; ATCC29751, Enterobacter aerogenes ATCC 29751, Muller-Hinton agar, 37° C., 20 hours, read-out: MIC): 0.15 µg/mL (≈ 0.24 µM)
